{"source": "paper PMC10951066", "about": "“The self-reactive FVIII T cell repertoire in healthy individuals relies on a short set of epitopes and public clonotypes” (Frontiers in Immunology, 2024)", "key": {"[1]": {"system": "CD4 T cells from healthy donors", "assay": "Large-scale CD4 T cell epitope mapping by IFN-γ ELISPOT (16 donors)", "type": "cell-based, human", "text": "PBMCs were purified from the whole blood of anonymous healthy donors, who gave informed consent (Etablissement Français du Sang, Rungis, France), using Ficoll-Paque®. Monocyte-derived dendritic cells (DCs) were produced from cells isolated using Percoll gradient by 5 days of culture in AIM-V medium (Invitrogen, Villebon-sur-Yvette, France) supplemented with 1,000 U/ml recombinant human (rh) IL-4 and rhGM-CSF (both from R&D Systems, Lille, France). Mature DCs were produced by two supplementary days of culture in the presence of LPS (1 µg/ml) and R848 (10µg/ml). CD4 T cells were isolated from autologous PBMCs by positive selection using magnetic labeling with anti-CD4 mAbs conjugated to magnetic microbeads followed by magnetic cell sorting, as recommended by the manufacturer (Miltenyi Biotec, Bergisch Gladbach, Germany). Immature DCs were loaded overnight at 37 °C with either 0.2 µM of rFVIII, 0.2 µM of ovalbumin, or 0.25 µM of KLH in 96-well U-bottom plates, while mature DCs were used for FVIII peptides (10 ug/ml). CD4 T cell lines were generated in vitro in IMDM (Invitrogen) supplemented with 10% human serum, 0.24 mM glutamine, 0.55 mM asparagine, 1.5 mM arginine (all amino acids from Sigma-Aldrich), 50 U/mL penicillin/50 μg/mL of streptomycin (Invitrogen), 20 IU/mL human IL-2, and 17 IU/ml human IL-7 (premium-grade; Miltenyi Biotec) by three once-per-week rounds of stimulation of CD4 T cells (200,000 per well) with autologous DCs (20,000 per well). 10,000 lymphocytes were collected at day 19 from each T cell line (expanded T cells contained in one well) and their specificity was assessed by using IFN-g ELISPOT.\nThe T cell lines and APCs were plated at equal number for both stimulated and unstimulated control conditions. […] The spot number was determined by using the ELISPOT Reader System (Autoimmun Diagnostika, Ebinger, Germany). HLA restriction was assessed using monoclonal antibodies (10 μg/ml) specific to HLA-DP (B7/21), HLA-DQ (SPVL3), or HLA-DR (L243).\nBased on the T cell epitope prediction software NetMHCpan4.0 ([23]), we selected 63 20-mer peptides that are predicted for their ability to bind promiscuously, with a percentile score below 10%, at least four HLA class II molecules from a selection of 15 preponderant HLA-DR alleles in our panel (as shown in ST1). […] A total of 16 healthy donors with unrelated HLA typing (ST2) were used as sources of T cells to identify FVIII-specific CD4 T cell epitopes. Specific T cell lines were generated by in vitro T cell culture using FVIII and KLH. The peptide specificity of the T cell lines raised against FVIII was assessed by two independent IFN-γ ELISPOT using peptide pools and individual peptides. […] Furthermore, four independent healthy donors were used as sources of T cells to characterize the HLA restriction and to assess the reactivity of T cell lines generated with the 18 peptides toward rFVIII. T cell lines were amplified in vitro for 28 days through stimulation with the pool of 18 peptides and then tested through IFN-γ ELISPOT."}, "HLA-DRB1*0101": {"target": "HLA-DRB1*0101 (Homo sapiens, UniProt P01903+P01911, A100R/D57E/F55L/F60I/F76Y/I96L/L162R/M171V/P40L/Q125E/R42F/V115G/Y59C)", "assay": "Peptide-MHCII competition binding assay", "conditions": "competition ELISA, pH 5.9, peptide 90.000nM – 0.9nM, HLA-DRB1 30 nM, biotinylated peptide 15nM, duplicate wells; ratios below 10 = good binding; reference peptide […]", "method": "(§1) Quantitative peptide-MHCII competition binding assays were carried out to determine binding avidities of the 18 20-mer FVIII peptides to 6 HLA-DRB1. Data are presented as ratio between reference peptide IC50/FVIII-peptide IC50 tested. Briefly, non-biotinylated FVIII peptides have been diluted at a concentration of 20 mM in DMSO. 10-µl aliquots of serially diluted (90.000nM – 0.9nM in n-Octyl b-D-Glucopyranoside, 2.5 mg/ml in 1x phosphate buffer, pH 5.9) of non-biotinylated FVIII peptides, were added to duplicate wells of 96-well polypropylene plates. Serially diluted non-FVIII reference peptides known to bind to the specific HLA-DRB1 were added to separate wells as positive controls. Next, the biotinylated peptide at a concentration of 2mM was use to prepare 1000-fold pre-dilution to reach a final concentration of 15nM. The HLA-DRB1 proteins were diluted to 30 nM in n-Octyl β-D-Glucopyranoside, 2.5 mg/ml in 1x phosphate buffer, pH 5.9. […] SA-HRP (diluted 5000x in 1xPBS 0.1% Tween20) was added to each well. The plates were covered and incubated at room temperature for 60 min […] and washed. TMB (100 μl/well) was then added, and the plates were incubated at room temperature for 15-30 min. ELISA stopping solution (0.5M H2SO4) was added and then read on a FLUOstar OPTIMA fluorometer. Sigmoidal binding curves were simulated and IC50 values calculated for the FVIII peptides, based on their competition with the reference peptides for each HLA-DRB1. Data were reported as the ratio between the values of the tested peptide and of the reference peptide. Ratios below 10 correspond to good biding affinity."}, "HLA-DRB1*0401": {"target": "HLA-DRB1*0401 (Homo sapiens, UniProt P01903+P01911, A100K/A169T/F76Y/I96L/K127E/L162R/M171V/N62H/P40V/Q125Y/R42H/S133A/S149N/S66Y/V115G/V209L/W38E)", "assay": "Peptide-MHCII competition binding assay", "conditions": "competition ELISA, pH 5.9, peptide 90.000nM – 0.9nM, HLA-DRB1 30 nM, biotinylated peptide 15nM, duplicate wells; ratios below 10 = good binding; reference peptide […]", "method": "as §1"}, "HLA-DRB1*0701": {"target": "HLA-DRB1*0701 (Homo sapiens, UniProt P01903+P01911, A100R/A102G/A103Q/D57E/D86V/E43K/F76Y/K127E/L162R/M171V/P40G/Q125H/Q99D/R33Q/R42Y/R54Q/S133A/S66F/T210M/V115G/Y107V/Y59L/Y89S)", "assay": "Peptide-MHCII competition binding assay", "conditions": "competition ELISA, pH 5.9, peptide 90.000nM – 0.9nM, HLA-DRB1 30 nM, biotinylated peptide 15nM, duplicate wells; ratios below 10 = good binding; reference peptide PVDLHAFLSQAVFS", "method": "as §1"}, "HLA-DRB1*1101": {"target": "HLA-DRB1*1101 (Homo sapiens, UniProt P01903+P01911, A100R/A169T/A87E/I96F/K41T/L162R/M171V/P40S/Q125H/Q178H/Q39Y/Q99D/R42S/S66Y/T262R/V115G/W38E)", "assay": "Peptide-MHCII competition binding assay", "conditions": "competition ELISA, pH 5.9, peptide 90.000nM – 0.9nM, HLA-DRB1 30 nM, biotinylated peptide 15nM, duplicate wells; ratios below 10 = good binding; reference peptide […]", "method": "as §1"}}, "data": [{"sequence": "YDTVVITLKNMASHPVSLHA [P100-119, 20-mer FVIII peptide, A1 domain]", "values": [{"measurement": "nb positive T cell lines", "setting": "[1]; across all 16 donors", "result": 44}, {"measurement": "cumulative donor coverage (%)", "setting": "[1]; cumulative over peptides ranked by donor coverage", "result": 81, "unit": "%"}, {"measurement": "Donor coverage ( %)", "setting": "[1]; of 16 donors", "result": 69, "unit": "%"}, {"measurement": "responding donors", "setting": "[1]; of 16 healthy donors, individual peptide 10 µg/ml", "result": 11}, {"measurement": "response intensity ( %)", "setting": "[1]; percentage of 872 FVIII-specific T cell lines", "result": "5,05%"}, {"measurement": "Ratio IC50 DRB1*0101", "setting": "HLA-DRB1*0101", "result": 226}, {"measurement": "Ratio IC50 DRB1*0401", "setting": "HLA-DRB1*0401", "result": 17}, {"measurement": "Ratio IC50 DRB1*0701", "setting": "HLA-DRB1*0701", "result": 3}, {"measurement": "Ratio IC50 DRB1*1101", "setting": "HLA-DRB1*1101", "result": 2}]}]}
